According to ChEMBL document CHEMBL3822378, “Click-based synthesis and antitubercular evaluation of dibenzofuran tethered thiazolyl-1,2,3-triazolyl acetamides” (Bioorg Med Chem Lett, 2016):
Converted amounts (≈) assume the structure as drawn.

Legend:
[1] = system: Mycobacterium tuberculosis; test: Antitubercular activity against Mycobacterium tuberculosis H37Rv ATCC 27294 after 28 days by two-fold agar dilution method; assay type: functional; details: H37Rv ATCC 27294, 672 h
[2] = Cytotoxicity against mouse RAW264.7 cells assessed as growth inhibition at 50 ug/ml after 72 hrs by MTT assay; assay type: cell-based; details: read-out: GI
[3] = system: Mycobacterium tuberculosis; test: Antitubercular activity against Mycobacterium tuberculosis H37Rv by microplate alamar blue assay; assay type: functional
[4] = system: Staphylococcus epidermidis; test: Antibacterial activity against Staphylococcus epidermidis 2D866 by two-fold agar dilution method; assay type: functional

Compound | MIC [1] [µg/mL] | inhibition at 72 h, 50 ug/ml [2] [%] | other results
CC(C)(C)c1ccc(-c2cn(CC(=O)Nc3nc(-c4ccc5oc6ccccc6c5c4)cs3)nn2)cc1 | 12.5 (≈ 24.6 µM) | 30.2 | 
CC(=O)C1=C(O)C=C2Oc3c(C(C)=O)c(O)c(C)c(O)c3C2(C)C1=O (stereo not drawn) |  |  | MIC [3]: 12.5 µg/mL (≈ 36.3 µM)
CCCc1cn(CC(=O)Nc2nc(-c3ccc4oc5ccccc5c4c3)cs2)nn1 | 50 (≈ 120 µM) |  | 
O=C(Cn1cc(-c2cc(C(F)(F)F)cc(C(F)(F)F)c2)nn1)Nc1nc(-c2ccc3oc4ccccc4c3c2)cs1 | 25 (≈ 42.6 µM) |  | 
O=C(Cn1cc(CCCO)nn1)Nc1nc(-c2ccc3oc4ccccc4c3c2)cs1 | 25 (≈ 57.7 µM) |  | 
O=C(Cn1cc(C2(O)CCCC2)nn1)Nc1nc(-c2ccc3oc4ccccc4c3c2)cs1 | 12.5 (≈ 27.2 µM) | 22.2 | 
CCCCCCc1cn(CC(=O)Nc2nc(-c3ccc4oc5ccccc5c4c3)cs2)nn1 | 1.56 (≈ 3.39 µM) | 28.6 | 
O=C(Cn1cc(CCc2ccccc2)nn1)Nc1nc(-c2ccc3oc4ccccc4c3c2)cs1 | > 50 |  | 
NNC(=O)c1ccncc1 [ISONIAZID] | 0.1 (≈ 0.729 µM) |  | 
CCCCCCCCCCCCc1cn(CC(=O)Nc2nc(-c3ccc4oc5ccccc5c4c3)cs2)nn1 | 3.12 (≈ 5.74 µM) | 26.5 | 
O=C(Cn1cc(-c2ccc(-c3ccccc3)cc2)nn1)Nc1nc(-c2ccc3oc4ccccc4c3c2)cs1 | > 50 |  | 
CCCCCc1cn(CC(=O)Nc2nc(-c3ccc4oc5ccccc5c4c3)cs2)nn1 | 12.5 (≈ 28.1 µM) | 20.4 | 
Cc1ccc(-c2cn(CC(=O)Nc3nc(-c4ccc5oc6ccccc6c5c4)cs3)nn2)cc1 | 50 (≈ 107 µM) |  | 
CCCCCC(=O)c1c(OC)c(Cl)c2oc3c(Cl)c(OC)c(Cl)c(O)c3c2c1O |  |  | MIC [4]: 0.39 µg/mL (≈ 0.845 µM)
O=C(Cn1cc(C2CC2)nn1)Nc1nc(-c2ccc3oc4ccccc4c3c2)cs1 | 50 (≈ 120 µM) |  | 
CC[C@@H](CO)NCCN[C@@H](CC)CO [ETHAMBUTOL] | 3.13 (≈ 15.3 µM) |  | 
NC(=O)c1cnccn1 [PYRAZINAMIDE] | 50 (≈ 406 µM) |  | 
COc1cccc(-c2cn(CC(=O)Nc3nc(-c4ccc5oc6ccccc6c5c4)cs3)nn2)c1 | 6.25 (≈ 13 µM) | 18.1 | 
CCCCCc1ccc(-c2cn(CC(=O)Nc3nc(-c4ccc5oc6ccccc6c5c4)cs3)nn2)cc1 | > 50 |  | 
O=C(Cn1cc(-c2ccc(F)cc2F)nn1)Nc1nc(-c2ccc3oc4ccccc4c3c2)cs1 | 25 (≈ 51.3 µM) |  | 
O=C(Cn1cc(-c2ccccc2)nn1)Nc1nc(-c2ccc3oc4ccccc4c3c2)cs1 | 3.12 (≈ 6.91 µM) | 20.4 | 
